Earlier results as cited in patent publication US11304902B2, “Pharmaceutical compositions, preparation and uses thereof” (CURADIGM SAS, priority 2014, dated 2022).
Entries after “also recorded” stand apart in the source; their conditions may differ.

How the values were obtained:
Conditions in all cases: human CYP enzyme
CYP1A1 = target: T1, CYP1A1 (Homo sapiens, UniProt P04798)
T1 sequence (P04798 1-512): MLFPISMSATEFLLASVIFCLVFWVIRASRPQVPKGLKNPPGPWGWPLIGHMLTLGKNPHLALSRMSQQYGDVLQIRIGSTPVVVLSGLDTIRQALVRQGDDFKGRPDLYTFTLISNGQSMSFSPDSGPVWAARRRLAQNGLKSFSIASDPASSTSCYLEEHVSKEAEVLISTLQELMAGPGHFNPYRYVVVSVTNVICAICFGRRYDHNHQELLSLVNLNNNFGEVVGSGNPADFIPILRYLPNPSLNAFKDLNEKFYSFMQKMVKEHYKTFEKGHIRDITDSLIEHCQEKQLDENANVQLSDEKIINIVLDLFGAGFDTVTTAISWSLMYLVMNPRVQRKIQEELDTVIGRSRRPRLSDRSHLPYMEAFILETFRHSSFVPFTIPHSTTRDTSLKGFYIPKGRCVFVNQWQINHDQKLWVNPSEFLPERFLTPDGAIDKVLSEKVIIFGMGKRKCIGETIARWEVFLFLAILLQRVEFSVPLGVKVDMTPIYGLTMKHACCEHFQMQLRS

CYP1A2 = target: T2, CYP1A2 (Homo sapiens, UniProt P05177)
T2 sequence (P05177 1-516): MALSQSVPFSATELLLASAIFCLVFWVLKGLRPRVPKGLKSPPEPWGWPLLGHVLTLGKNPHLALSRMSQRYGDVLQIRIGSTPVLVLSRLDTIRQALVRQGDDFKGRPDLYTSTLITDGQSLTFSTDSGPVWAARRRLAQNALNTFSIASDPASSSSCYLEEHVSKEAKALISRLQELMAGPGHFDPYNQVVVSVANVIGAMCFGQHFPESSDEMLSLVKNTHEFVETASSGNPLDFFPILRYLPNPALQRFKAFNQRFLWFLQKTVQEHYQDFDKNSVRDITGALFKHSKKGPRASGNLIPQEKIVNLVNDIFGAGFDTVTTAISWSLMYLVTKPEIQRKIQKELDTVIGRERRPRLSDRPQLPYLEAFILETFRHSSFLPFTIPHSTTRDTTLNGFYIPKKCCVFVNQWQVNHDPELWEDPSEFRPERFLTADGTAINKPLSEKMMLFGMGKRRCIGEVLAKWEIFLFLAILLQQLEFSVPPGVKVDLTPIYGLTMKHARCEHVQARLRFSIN

CYP2C8 = target: T3, CYP2C8 (Homo sapiens, UniProt P10632)
T3 sequence (P10632 1-490): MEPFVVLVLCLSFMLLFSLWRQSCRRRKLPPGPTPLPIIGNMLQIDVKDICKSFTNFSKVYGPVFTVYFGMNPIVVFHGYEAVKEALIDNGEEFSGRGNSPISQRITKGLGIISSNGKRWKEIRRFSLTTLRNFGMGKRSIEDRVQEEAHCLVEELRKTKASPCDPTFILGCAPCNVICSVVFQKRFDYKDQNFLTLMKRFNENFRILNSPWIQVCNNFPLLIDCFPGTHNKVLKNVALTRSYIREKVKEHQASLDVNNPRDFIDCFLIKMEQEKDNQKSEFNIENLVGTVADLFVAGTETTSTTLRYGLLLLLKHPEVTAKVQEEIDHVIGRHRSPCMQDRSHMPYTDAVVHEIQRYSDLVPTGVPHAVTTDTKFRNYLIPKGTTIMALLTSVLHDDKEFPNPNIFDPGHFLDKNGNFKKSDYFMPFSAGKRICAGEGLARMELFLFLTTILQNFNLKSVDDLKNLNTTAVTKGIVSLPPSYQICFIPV

CYP1B1 = target: T4, CYP1B1 (Homo sapiens, UniProt Q16678)
T4 sequence (Q16678 1-543): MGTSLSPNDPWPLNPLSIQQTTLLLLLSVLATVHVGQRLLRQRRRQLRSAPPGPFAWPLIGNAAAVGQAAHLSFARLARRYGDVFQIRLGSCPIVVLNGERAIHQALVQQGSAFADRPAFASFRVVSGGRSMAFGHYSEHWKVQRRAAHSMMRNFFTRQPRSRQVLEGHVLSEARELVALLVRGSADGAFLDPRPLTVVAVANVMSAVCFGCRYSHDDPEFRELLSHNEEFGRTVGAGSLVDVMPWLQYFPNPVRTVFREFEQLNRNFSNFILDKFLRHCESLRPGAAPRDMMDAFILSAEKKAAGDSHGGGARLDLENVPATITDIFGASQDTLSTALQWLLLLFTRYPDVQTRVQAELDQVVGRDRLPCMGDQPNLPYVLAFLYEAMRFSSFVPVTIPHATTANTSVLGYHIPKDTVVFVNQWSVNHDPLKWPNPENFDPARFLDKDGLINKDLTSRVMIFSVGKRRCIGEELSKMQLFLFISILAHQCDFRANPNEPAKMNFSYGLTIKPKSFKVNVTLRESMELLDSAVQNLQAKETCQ

CYP2E1 = CYP2E1 (Homo sapiens, UniProt P05181)
CYP3A4 = CYP3A4 (Homo sapiens, UniProt P08684)
CYP4B1 = CYP4B1 (Homo sapiens, UniProt P13584)
CYP4F2 = target: T5, CYP4F2 (Homo sapiens, UniProt P78329)
T5 sequence (P78329 5-520): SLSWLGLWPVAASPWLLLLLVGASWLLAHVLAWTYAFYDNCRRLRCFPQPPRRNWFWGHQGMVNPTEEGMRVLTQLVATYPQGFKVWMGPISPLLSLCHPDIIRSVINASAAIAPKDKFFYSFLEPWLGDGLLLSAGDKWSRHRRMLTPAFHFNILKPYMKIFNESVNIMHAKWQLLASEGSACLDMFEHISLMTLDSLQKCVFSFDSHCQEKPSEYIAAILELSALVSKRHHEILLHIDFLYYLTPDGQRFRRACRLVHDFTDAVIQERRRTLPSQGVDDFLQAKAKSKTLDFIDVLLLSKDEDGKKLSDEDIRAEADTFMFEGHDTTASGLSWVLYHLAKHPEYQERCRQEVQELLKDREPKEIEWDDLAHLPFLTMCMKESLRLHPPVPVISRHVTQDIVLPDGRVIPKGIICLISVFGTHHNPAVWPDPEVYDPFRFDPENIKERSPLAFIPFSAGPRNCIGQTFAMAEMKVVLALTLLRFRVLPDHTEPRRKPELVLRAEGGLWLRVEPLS

Chain of CYP3A4 (P08684 whole entry): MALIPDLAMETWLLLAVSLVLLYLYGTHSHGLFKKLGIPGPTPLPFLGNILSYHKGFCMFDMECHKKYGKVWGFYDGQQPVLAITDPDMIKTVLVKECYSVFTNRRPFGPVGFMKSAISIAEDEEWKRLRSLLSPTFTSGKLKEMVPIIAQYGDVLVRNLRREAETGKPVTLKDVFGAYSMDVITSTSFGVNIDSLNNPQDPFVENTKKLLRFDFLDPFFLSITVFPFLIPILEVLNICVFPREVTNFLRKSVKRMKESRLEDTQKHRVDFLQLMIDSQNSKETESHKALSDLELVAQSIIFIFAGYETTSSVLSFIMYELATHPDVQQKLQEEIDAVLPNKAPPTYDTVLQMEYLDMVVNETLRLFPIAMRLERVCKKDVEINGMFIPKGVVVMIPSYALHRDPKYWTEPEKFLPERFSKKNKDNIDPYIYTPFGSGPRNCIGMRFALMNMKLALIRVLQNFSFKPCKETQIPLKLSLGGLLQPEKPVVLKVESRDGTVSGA
Chain of CYP4B1 (P13584 whole entry): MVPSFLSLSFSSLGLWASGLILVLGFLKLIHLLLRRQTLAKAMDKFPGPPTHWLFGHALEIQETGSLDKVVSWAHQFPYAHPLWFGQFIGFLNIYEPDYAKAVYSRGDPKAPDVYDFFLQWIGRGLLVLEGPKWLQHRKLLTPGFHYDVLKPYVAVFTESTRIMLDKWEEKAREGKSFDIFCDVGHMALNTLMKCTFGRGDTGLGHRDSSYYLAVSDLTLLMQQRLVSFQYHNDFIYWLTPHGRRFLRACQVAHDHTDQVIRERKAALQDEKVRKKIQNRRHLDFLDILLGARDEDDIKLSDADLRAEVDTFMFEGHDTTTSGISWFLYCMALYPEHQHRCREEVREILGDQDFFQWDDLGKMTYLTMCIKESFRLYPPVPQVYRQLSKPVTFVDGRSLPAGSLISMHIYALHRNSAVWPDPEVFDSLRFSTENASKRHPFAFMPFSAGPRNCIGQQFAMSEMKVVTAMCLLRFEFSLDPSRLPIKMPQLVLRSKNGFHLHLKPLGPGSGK
Chain of CYP2E1 (P05181 whole entry): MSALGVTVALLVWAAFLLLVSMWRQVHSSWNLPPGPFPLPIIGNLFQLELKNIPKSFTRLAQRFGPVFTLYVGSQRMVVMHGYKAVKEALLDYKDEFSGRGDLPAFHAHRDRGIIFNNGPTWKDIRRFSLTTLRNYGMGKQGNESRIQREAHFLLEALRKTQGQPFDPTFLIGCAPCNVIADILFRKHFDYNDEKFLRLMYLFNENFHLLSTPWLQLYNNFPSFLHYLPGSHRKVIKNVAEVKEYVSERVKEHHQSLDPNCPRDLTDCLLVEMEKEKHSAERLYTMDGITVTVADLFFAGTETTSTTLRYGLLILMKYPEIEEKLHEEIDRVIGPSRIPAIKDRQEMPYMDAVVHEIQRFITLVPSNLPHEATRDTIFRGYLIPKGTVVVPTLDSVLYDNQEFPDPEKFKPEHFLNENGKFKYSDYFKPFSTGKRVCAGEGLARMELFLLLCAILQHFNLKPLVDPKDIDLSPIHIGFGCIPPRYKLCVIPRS

role towards CYP1A1 (substrate / inhibitor / inducer) (CYP1A1): Inhibitor
role towards CYP1A2 (substrate / inhibitor / inducer) (CYP1A2): Substrate; also recorded: Inhibitor
role towards CYP2C8 (substrate / inhibitor / inducer) (CYP2C8): Substrate
role towards CYP1B1 (substrate / inhibitor / inducer) (CYP1B1): Inhibitor
role towards CYP2E1 (substrate / inhibitor / inducer) (CYP2E1): Inhibitor
role towards CYP3A4 (substrate / inhibitor / inducer) (CYP3A4): Inhibitor; also recorded: Substrate
role towards CYP4B1 (substrate / inhibitor / inducer) (CYP4B1): Substrate
role towards CYP4F2 (substrate / inhibitor / inducer) (CYP4F2): Substrate
SMILES: CCCCC/C=C\C/C=C\C/C=C\C/C=C\CCCC(=O)O [Arachidonic acid, arachidonic acid]
